Assay results taken from patent US10066272B2, “Human homeobox gene ventx and macrophage terminal differentiation and activation, compositions and methods thereof” (priority 2011, dated 2018).

Columns and labels:
Format in all cases: cell-based, human
primary monocytes = test: Monocyte to macrophage differentiation after siRNA transfection, surface markers by FACS; conditions: monocytes, 100 ng/mL M-CSF, 4 days after transfection (FIG. 12)
Method: (A) knockdown of VentX expression in primary monocytes by RNA interference. Monocytes were transfected with siRNA against GFP or VentX through electroporation. VentX mRNA levels were determined by real time PCR at 3 days after transfection (left); VentX protein level was determined by western blotting at 4 days after transfection (right). (B) Effects of VentX knockdown on macrophage morphogenesis during M-CSF induced differentiation. Monocytes were transfected with either siGFP or siVentX and subsequently exposed to 100 ng/mL M-CSF. […] Magnification of photographs, ×200. Note: a portion of cells lost their original morphology during Wright-Giemsa staining procedure. (C) Effects of VentX knockdown on macrophage surface expression of CD71. […] Filled blue histogram represents the isotope control staining; red histogram represents monocytes transfected with siGFP; green histogram represents monocytes transfected with siVentX. (D) Bar graphs show mean+SD of 6 different experiments in (C). Paired t test was used to reveal the statistical significance. **p<0.01.
(A) Left panel: Flow cytometry analysis of indicated surface markers in monocytes transfected with siGFP or siVentX, respectively; right panel: bar graphs show the mean+SD of at least three separate experiments. *p<0.05; **p<0.01. (B) Effects of VentX knockdown on macrophage viability. Monocytes were transfected with either siGFP or siVentX and subsequently exposed to 100 ng/mL M-CSF for 3 days. Cells were then harvested and stained with PI and Annexin V and analyzed by flow cytometry. (C) Effects of VentX knockdown on phagocytosis. Monocytes were transfected with siGFP or siVentX. Phagocytosis assays were carried out as described in materials and methods. […]
Surface expression of CD71 was determined by FACS analysis at 4 days after siRNA transfection. […]
Peripheral blood mononuclear cells (PBMC) from healthy adult donors at Children's Hospital Boston were isolated by Ficoll density gradient centrifugation. […] The purity of freshly isolated CD14^+ monocytes was more than 95% as analyzed by flow cytometry. […]

[1] = tested on: cytokine mRNA expression in macrophages; test: Effects of VentX knockdown on cytokine mRNA expression in macrophages (real-time PCR); set-up: unit not given here; conditions: macrophages transfected with siRNA; classical activation by LPS plus IFN-γ
Method: Macrophages were generated through incubation of freshly isolated monocytes with 100 ng/mL M-CSF for 4 days. These macrophages were then transfected with siGFP or siVentX, respectively, and further cultured in RPMI 1640 medium for additional 3 days. Thereafter, cells were exposed to 1 μg/mL LPS plus 20 ng/mL γ-IFN for 6 hours. (A) Surface staining of CD40, CD80, CD86 and HLA-DR and intracellular staining of TNF-α and IL1-β were analyzed by flow cytometry. (B) Secreted TNF-α, IL1-β and IL12p70 from culture supernatants were determined with ELISA kits. (C) Reactive oxygen species (ROS) from siGFP or siVentX transfected macrophages were analyzed with fluorescence microscope (left) and flow cytometry (middle). […] (D) Nitrate level from siGFP and siVentX transfected macrophages. Data represent mean+SD of three different experiments. (E) Phagocytosis of siGFP and siVentX transfected macrophage. Red histogram represents transfection with siGFP; green histogram represents transfection with siVentX. Left panel: cells were incubated on ice; right panel: cells were incubated at 37° C. (F) Effects of VentX knockdown on mixed lymphocyte reaction. Irradiated macrophages that had been transfected with siGFP or siVentX were utilized to stimulate allogenic naïve CD4 T cells proliferation. The proliferation rates were represented by counts per minute (CPM). […] Statistically significant difference (p<0.05) was observed when 4×10^2 or 2×10^3 cells were added.
(Martinez, et al. 2008 Front Biosci 13:453-461; Mosser, et al. 2008 Nat Rev Immunol 8:958-969.) To investigate whether VentX is required for classical activation of macrophages, a loss-of-function approach by knockdown of VentX was used.
Human primary monocytes were transfected using the Human Monocyte Nucleofector Kit (Lonza) according to the manufacturer's instructions. Briefly, 5×10^6monocytes were resuspended into 100 μl nucleofector solution with 0.5 nmol of either VentX siRNA (forward: 5′-[…]-3′ (SEQ ID NO:4); reverse: 5′-[…]-3′ (SEQ ID NO:5)) or non-effective GFP siRNA (forward: 5′-[…]-3′ (SEQ ID NO:6); 5′-reverse: […]-3′ (SEQ ID NO:7)) before electroporation with nucleofector II Device (Lonza). Cells were then immediately removed from the device and incubated overnight with 1 ml pre-warmed Human Monocyte Nucleofector Medium containing 2 mM glutamine and 10% FBS. Cells were then resuspended into complete RPMI medium and treated with appropriate cytokines to induce differentiation into macrophages. Similarly, macrophages derived from monocytes were transfected with Human Macrophage Nucleofector Kit (Lonza) following the manufacturer's instructions.
Total RNA was isolated by the TRIzol reagent, and an equal amount of RNA was used for first-strand cDNA synthesis with SuperScript III First-Strand Synthesis System (Invitrogen) according to the manufacturer's protocol. To amplify VentX cDNA with conventional PCR, AccuPrime™ Taq DNA polymerase system (Invitrogen) was used following the manufacturer's instructions. PCR products were separated on 2% agarose gels and stained with ethidium bromide. GAPDH was used as an internal control. Quantitative measurement of VentX and cytokines cDNA were performed with SYBR Green on a LightCycler® (480 Real-Time PCR System; Roche). The primers used are listed in the Sequence Listing (SEQ ID NOs: 24-109).

VentX = VentX expression during cytokine-induced monocyte to macrophage differentiation (RT-PCR, western blot); conditions: monocytes cultured with cytokine at 100 ng/ml (FIG. 1B)
Method: (B) VentX expression during monocyte to macrophage differentiation in vitro. Monocytes were cultured in the presence of M-CSF (M), GM-CSF (GM) or IL3 for indicated days or in the absence of cytokines for 3 days. […] VentX expression in freshly isolated monocytes was used as baseline control (Day 0). […] (D) Time course of VentX expression during in vitro induction of monocytes differentiation into macrophages. Monocytes were subjected to M-CSF treatment in vitro for indicated time. The VentX mRNA levels were determined by quantitative PCR for up to 7 days.
Peripheral blood mononuclear cells (PBMC) from healthy adult donors at Children's Hospital Boston were isolated by Ficoll density gradient centrifugation. […] CD14^+ monocytes were purified from PBMCs using anti-CD14-coated microbeads (Miltenyi Biotec). The purity of freshly isolated CD14^+ monocytes was more than 95% as analyzed by flow cytometry. Monocytes were cultured in 12-well plates at 1×10^6 cells/ml with RPMI 1640 medium containing 10% fetal bovine serum (FBS). […]
Total RNA was isolated by the TRIzol reagent, and an equal amount of RNA was used for first-strand cDNA synthesis with SuperScript III First-Strand Synthesis System (Invitrogen) according to the manufacturer's protocol. […] Quantitative measurement of VentX and cytokines cDNA were performed with SYBR Green on a LightCycler® (480 Real-Time PCR System; Roche).

## VentX siRNA-2: second siRNA sequence against VentX, 5′-UCUACUCAACGUCUUCUGGCCUUGCCAAU-3′ (SEQ ID NO:3) (listed as RNA, chemistry not given here)
Primary monocytes
  surface expression of CD71 and other markers: down-regulated

## siGFP: non-effective GFP siRNA, forward 5′-UGACCACCCUGACCUACGGCGUGCAGUGC-3′ (SEQ ID NO:6), reverse SEQ ID NO:7 (antisense GCACUGCACGCCGUAGGUCAGGGUGGUCA; listed as RNA, chemistry not given here) [reference compound]
[1]
  IL1-β cytokine mRNA expression: 51.08 ± 3.2
  IL6 cytokine mRNA expression: 3.40 ± 0.21
  IL8 cytokine mRNA expression: 471 ± 10.2
  IL12p35 cytokine mRNA expression: 1.77 ± 0.21
  IL12p40 cytokine mRNA expression: 0.52 ± 0.02
  M-SCSF cytokine mRNA expression: 0.40 ± 0.01
  TNF-α cytokine mRNA expression: 0.46 ± 0.04

## GM-CSF: granulocyte macrophage colony-stimulating factor, purchased from PeproTech
VentX
  VentX expression during monocyte to macrophage differentiation: up-regulated

B1: M-CSF: macrophage colony-stimulating factor, purchased from PeproTech (protein, UniProt P09603 33-554, looked up)
Macrophage colony-stimulating …: EEVSEYCSHMIGSGHLQSLQRLIDSQMETSCQITFEFVDQEQLKDPVCYLKKAFLLVQDIMEDTMRFRDNTPNAIAIVQLQELSLRLKSCFTKDYEEHDKACVRTFYETPLQLLEKVKNVFNETKNLLDKDWNIFSKNCNNSFAECSSQDVVTKPDCNCLYPKAIPSSDPASVSPHQPLAPSMAPVAGLTWEDSEGTEGSSLLPGEQPLHTVDPGSAKQRPPRSTCQSFEPPETPVVKDSTIGGSPQPRPSVGAFNPGMEDILDSAMGTNWVPEEASGEASEIPVPQGTELSPSRPGGGSMQTEPARPSNFLSASSPLPASAKGQQPADVTGTALPRVGPVRPTGQDWNHTPQKTDHPSALLRDPPEPGSPRISSLRPQGLSNPSTLSAQPQLSRSHSSGSVLPLGELEGRRSTRDRRSPAEPEGGPASEGAARPLPRFNSVPLTDTGHERQSEGSFSPQLQESVFHLLVPSVILVLLAVGGLLFYRWRRRSHQEPQRADSPLEQPEGSPLTQDDRQVELPV
VentX
  VentX expression during monocyte to macrophage differentiation: up-regulated
